Assay [1] has as its system MDA-MB-231 human breast tumor cells. As to the kind of experiment: Boyden-chamber cell migration assay. To be noted: migration 6 h. The class given is cell-based. The procedure:
Certain tumor cells with fascin expression are listed below.
Exemplifying procedure: MDA-MB-231 cells (5×10^4) or 4T1 Cells (1×10^5) were suspended in 100 μl starvation medium and added to the upper chamber of an insert (6.5 mm diameter, 8 μm pore size; Becton Dickson). The insert was placed in a 24-well plate containing 700 μL starvation medium with or without 10% FBS. […] Migration assays were performed for 6 h and cells are fixed with 3.7% formaldehyde. Cells were stained with crystal violet staining solution, and cells on the upper side of the insert were removed with a cotton swab. Three randomly selected fields (×10 objectives) on the lower side of the insert were photographed, and the migrated cells were counted. Migration was expressed as average number of migrated cells in a field.

The next assay concerns the target T1, human fascin 1 (Homo sapiens, UniProt Q16658).
T1 construct: GST (N, cleaved yes); made in house; host or cells: Escherichia coli BL21/DE3 (pGEX4T-fascin 1 plasmid)
Description: Fascin inhibition (actin bundling) assay, image-based. The class given is biochemical. As to conditions: in the presence of 50 μm of the compound relative to bundle activity when the compound was not present; read-out: Inhibition (percentage reduction of bundle activity). The essentials:
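GST-tagged human fascin 1 from E. coli, thrombin-cleaved, was preincubated with compounds for 30 min, then polymerized actin was added; compounds were at 30 μM final. Bundles captured on poly-D-lysine plates were imaged, and background-corrected bundle length per well was computed, with DMSO-only wells as negative controls.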

In the case of `O=C(Nc1nn(Cc2ccc(C(F)(F)F)cc2)c2ccccc12)c1ccno1` [Compound 25, N-(1-(4-(trifluoromethyl)benzyl)-1H-indazol-3-yl)isoxazole-5-carboxamide], the IC50 in assay [1] was 54 µM. For the same molecule, the inhibition at 50 µM at human fascin 1 stood at 100%.

In assay [1], `Cc1nocc1C(=O)Nc1nn(Cc2ccc(C(F)(F)F)cc2)c2ccccc12` [Compound 35, 3-methyl-N-(1-(4-(trifluoromethyl)benzyl)-1H-indazol-3-yl)isoxazole-4-carboxamide] displayed an IC50 of 18 µM. The inhibition at 50 µM at human fascin 1 was 100%.

On to `O=C(Nc1nn(Cc2ccc(C(F)(F)F)cc2)c2ccccc12)c1cccnn1` [Compound 49, N-(1-(4-(trifluoromethyl)benzyl)-1H-indazol-3-yl)pyridazine-3-carboxamide], for which, in assay [1], the midpoint of inhibition, the IC50, lay at 13 µM. For the same molecule, at human fascin 1, the inhibition at 50 µM worked out at 100%.

In assay [1], `Cc1nocc1C(=O)Nc1nn(Cc2ccc(Cl)cc2)c2ccccc12` [Compound 65, N-(1-(4-chlorobenzyl)-1H-indazol-3-yl)-3-methylisoxazole-4-carboxamide] yielded an IC50 of 64 µM. Besides, on human fascin 1, the inhibition at 50 µM was found to be 90%.

In assay [1], `O=C(Nc1nn(Cc2ccc(Cl)cc2)c2ccccc12)c1ccno1` [Compound 66, N-(1-(4-chlorobenzyl)-1H-indazol-3-yl)isoxazole-5-carboxamide] returned an IC50 of 161 µM. In addition, the inhibition at 50 µM on human fascin 1 turned out to be 100%.

These data come from patent publication US10227345B2, “Compounds and methods for inhibiting fascin” (Cornell University, priority 2014, dated 2019).
